The source of these data is US11891365B2, “3-alkyl-4-amido-bicyclic [4,5,0] hydroxamic acids as HDAC inhibitors” (Valo Health, Inc., priority 2015, dated 2024).

The experiment addresses T1, Full length human recombinant HDAC6 protein (Homo sapiens, UniProt Q9UBN7).
T1 sequence (Q9UBN7 1-1215): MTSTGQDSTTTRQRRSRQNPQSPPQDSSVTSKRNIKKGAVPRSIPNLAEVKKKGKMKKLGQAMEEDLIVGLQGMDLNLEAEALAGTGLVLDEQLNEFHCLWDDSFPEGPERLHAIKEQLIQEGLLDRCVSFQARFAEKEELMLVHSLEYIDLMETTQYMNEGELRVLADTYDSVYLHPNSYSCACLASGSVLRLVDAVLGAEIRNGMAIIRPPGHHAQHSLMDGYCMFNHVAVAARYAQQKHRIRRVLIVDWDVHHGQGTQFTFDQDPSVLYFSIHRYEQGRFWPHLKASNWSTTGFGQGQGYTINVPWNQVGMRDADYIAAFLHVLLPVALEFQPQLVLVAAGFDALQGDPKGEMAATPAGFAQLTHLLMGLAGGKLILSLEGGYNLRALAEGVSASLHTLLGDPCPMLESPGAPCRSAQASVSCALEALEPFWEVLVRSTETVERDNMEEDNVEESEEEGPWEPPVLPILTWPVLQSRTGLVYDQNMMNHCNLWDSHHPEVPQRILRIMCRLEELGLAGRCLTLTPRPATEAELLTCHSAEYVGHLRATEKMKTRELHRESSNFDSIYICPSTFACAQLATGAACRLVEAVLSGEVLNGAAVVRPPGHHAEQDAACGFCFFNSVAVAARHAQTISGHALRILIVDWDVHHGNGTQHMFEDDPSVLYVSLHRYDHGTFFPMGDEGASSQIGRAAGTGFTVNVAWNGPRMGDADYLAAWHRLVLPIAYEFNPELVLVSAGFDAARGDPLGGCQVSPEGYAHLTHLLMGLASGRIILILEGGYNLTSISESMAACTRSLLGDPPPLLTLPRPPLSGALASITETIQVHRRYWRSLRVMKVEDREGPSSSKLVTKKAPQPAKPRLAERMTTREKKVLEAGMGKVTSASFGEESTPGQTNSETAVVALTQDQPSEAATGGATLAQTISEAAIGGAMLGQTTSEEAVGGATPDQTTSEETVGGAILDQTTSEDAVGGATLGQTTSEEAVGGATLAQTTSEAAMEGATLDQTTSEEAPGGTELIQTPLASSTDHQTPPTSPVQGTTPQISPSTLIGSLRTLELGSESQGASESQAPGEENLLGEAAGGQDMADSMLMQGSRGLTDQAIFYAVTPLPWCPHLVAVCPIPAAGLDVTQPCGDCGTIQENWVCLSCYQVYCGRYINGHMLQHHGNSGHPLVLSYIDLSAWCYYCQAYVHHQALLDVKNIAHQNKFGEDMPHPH
Briefly: In vitro histone deacetylase assay: enzymatic HDAC6 electrophoretic mobility shift assay. The note with it: 1 nM enzyme, 2 μM peptide substrate RHKK(Ac)-NH2, 25° C., 12 concentrations; read-out: Inhibitory Concentration (IC50) Values against HDAC6, Activity Range. Type of experiment: biochemical. (In general: A gel shift assay detects complexes by their altered migration in electrophoresis.)

With `CC(C)(C)OC(C(=O)N1CCOc2cc(C(=O)NO)ccc2C1)c1ccccc1` (centres unmarked) [4-(2-(tert-butoxy)-2-phenylacetyl)-N-hydroxy-2,3,4,5-tetrahydrobenzo[f][1,4]oxazepine-8-carboxamide], the IC50 fell in the range of 100 to 500 nM.
For the compound `C[C@H]1c2ccc(C(=O)NO)cc2OCCN1C(=O)C1COC1` [(S)-N-hydroxy-5-methyl-4-(oxetane-3-carbonyl)-2,3,4,5-tetrahydrobenzo[f][1,4]oxazepine-8-carboxamide], the IC50 is no more than 100 nM.
The result for `CC(C)(C)OC(=O)N1CCC2(CCC(C(=O)N3CCOc4cc(C(=O)NO)ccc4C3)CC2)CC1` [tert-butyl 9-(8-(hydroxycarbamoyl)-2,3,4,5-tetrahydrobenzo[f][1,4]oxazepine-4-carbonyl)-3-azaspiro[5.5]undecane-3-carboxylate] reads 100 to 500 nM; that for `O=C(NO)c1ccc2c(c1)OCCN(C(=O)c1ccccc1)C2` [4-benzoyl-N-hydroxy-2,3,4,5-tetrahydrobenzo[f][1,4]oxazepine-8-carboxamide], no more than 100 nM; that for `C[C@H]1COc2cc(C(=O)NO)ccc2CN1C(=O)CC(C)(C)O` [(S)-N-hydroxy-4-(3-hydroxy-3-methylbutanoyl)-3-methyl-2,3,4,5-tetrahydrobenzo[f][1,4]oxazepine-8-carboxamide], no more than 100 nM.
With `CC(C)[C@@H]1C[C@@H](C(=O)N2Cc3ccc(C(=O)NO)cc3OC[C@@H]2C)CCO1` [(S)-N-hydroxy-4-((2S,4S)-2-isopropyltetrahydro-2H-pyran-4-carbonyl)-3-methyl-2,3,4,5-tetrahydrobenzo[f][1,4]oxazepine-8-carboxamide], the IC50 was no more than 100 nM.
Consider `CC(C)(C)OC(=O)N1CCC2(CC1)c1ccccc1OC2C(=O)N1CCOc2cc(C(=O)NO)ccc2C1` (centres unmarked) [tert-butyl 2-(8-(hydroxycarbamoyl)-2,3,4,5-tetrahydrobenzo[f][1,4]oxazepine-4-carbonyl)-2H-spiro[benzofuran-3,4′-piperidine]-1′-carboxylate], for which the IC50 fell in the range of 100 to 500 nM.
As to `O=C(NO)c1ccc2c(c1)OCCN(C(=O)C1CCCC1)C2` [4-(cyclopentanecarbonyl)-N-hydroxy-2,3,4,5-tetrahydrobenzo[f][1,4]oxazepine-8-carboxamide], the IC50 was no more than 100 nM.
The result for `C[C@H]1c2ccc(C(=O)NO)cc2OCCN1C(=O)[C@]1(C)CCCOC1` [(S)-N-hydroxy-5-methyl-4-((R)-3-methyltetrahydro-2H-pyran-3-carbonyl)-2,3,4,5-tetrahydrobenzo[f][1,4]oxazepine-8-carboxamide] reads no more than 100 nM.
The result for `O=C(NO)c1ccc2c(c1)OC[C@H](C(F)(F)F)N(C(=O)C1CCOCC1)C2` [(R)-N-hydroxy-4-(tetrahydro-2H-pyran-4-carbonyl)-3-(trifluoromethyl)-2,3,4,5-tetrahydrobenzo[f][1,4]oxazepine-8-carboxamide] reads no more than 100 nM.
As for `O=C(NO)c1ccc2c(c1)OCCN(C(=O)C1CCC(F)(F)CC1)C2` [4-(4,4-difluorocyclohexane-1-carbonyl)-N-hydroxy-2,3,4,5-tetrahydrobenzo[f][1,4]oxazepine-8-carboxamide], the IC50 lay in the range of 100 to 500 nM.
The result for `C[C@H]1COc2cc(C(=O)NO)ccc2CN1C(=O)C1(C)CCC1` [(S)-N-hydroxy-3-methyl-4-(1-methylcyclobutane-1-carbonyl)-2,3,4,5-tetrahydrobenzo[f][1,4]oxazepine-8-carboxamide] reads no more than 100 nM; that for `C[C@H]1COc2cc(C(=O)NO)ccc2CN1C(=O)C1CCCCC1` [(S)-4-(cyclohexanecarbonyl)-N-hydroxy-3-methyl-2,3,4,5-tetrahydrobenzo[f][1,4]oxazepine-8-carboxamide], no more than 100 nM; that for `O=C(NO)c1ccc2c(c1)OCCN(C(=O)CCC(F)(F)F)C2` [N-hydroxy-4-(4,4,4-trifluorobutanoyl)-2,3,4,5-tetrahydrobenzo[f][1,4]oxazepine-8-carboxamide], 100 to 500 nM.
